Among the data in US9233964B2, “Sulfamide piperazine derivatives as protein tyrosine kinase inhibitors and pharmaceutical use therof” (LEO PHARMA A/S, priority 2011, dated 2016) are EC50 values, retold here.

What all share (type): biochemical
One experiment addresses T1, JAK1 (Homo sapiens, UniProt P23458).
T1 construct: JAK1 (aa 850-1154) and TYK2 (aa 871-1187) are expressed with an N-terminally fused GST-tag; GST (N); purchased Carna Biosciences, Inc; host or cells: baculovirus expression system
In words: JAK kinase assay (HTRF, phosphorylation of synthetic peptide), JAK1. As to conditions: catalytic domain, ATP at Km (7 μM); read-out: JAK1 kinase inhibitory activity (EC50). The essentials:
(§1)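 Catalytic-domain human JAK1 (GST-tagged, aa 850-1154) or His-tagged JAK2, baculovirus-expressed, phosphorylated 1 µM biotinylated TK peptide at Km ATP (JAK1 7 µM, 10 mM MgCl2, 50 nM SEB; JAK2 4 µM, 5 mM MgCl2) in pH 7.0 Hepes, 20-30 min RT. EDTA stop; overnight streptavidin-XL665/cryptate HTRF read.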
A general note: Time-resolved FRET reads energy transfer from a long-lived donor to a nearby acceptor.

In the next experiment the target is T2, JAK2 (Homo sapiens, UniProt O60674).
T2 construct: All four purified enzymes contain only the catalytic domain; His (N); purchased Carna Biosciences, Inc; host or cells: baculovirus expression system
In words: JAK kinase assay (HTRF, phosphorylation of synthetic peptide), JAK2. As to conditions: catalytic domain, ATP at Km (4 μM); read-out: JAK2 kinase inhibitory activity (EC50). The method, boiled down: as §1

Another experiment has as its target T3, JAK3 (Homo sapiens, UniProt P52333).
T3 construct: All four purified enzymes contain only the catalytic domain; His (N); purchased Carna Biosciences, Inc; host or cells: baculovirus expression system
Briefly: JAK kinase assay (HTRF, phosphorylation of synthetic peptide), JAK3. The settings on record: catalytic domain, ATP at Km (2 μM); read-out: JAK3 kinase inhibitory activity (EC50).

Another experiment has as its target T4, TYK2 (Homo sapiens, UniProt P29597).
T4 construct: JAK1 (aa 850-1154) and TYK2 (aa 871-1187) are expressed with an N-terminally fused GST-tag; GST (N); purchased Carna Biosciences, Inc; host or cells: baculovirus expression system
T4 sequence (P29597 871-1187): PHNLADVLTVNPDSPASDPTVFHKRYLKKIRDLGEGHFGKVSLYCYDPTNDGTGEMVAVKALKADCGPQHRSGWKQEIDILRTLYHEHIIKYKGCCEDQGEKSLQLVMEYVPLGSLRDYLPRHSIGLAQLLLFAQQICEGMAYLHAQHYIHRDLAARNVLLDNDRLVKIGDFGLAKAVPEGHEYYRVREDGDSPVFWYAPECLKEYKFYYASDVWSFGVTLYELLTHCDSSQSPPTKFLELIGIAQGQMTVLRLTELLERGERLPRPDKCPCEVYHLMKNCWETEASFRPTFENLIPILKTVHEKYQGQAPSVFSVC
Briefly: JAK kinase assay (HTRF, phosphorylation of synthetic peptide), TYK2. The settings on record: catalytic domain, ATP at Km (13 μM); read-out: TYK2 kinase inhibitory activity (EC50). The essentials: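 1 µM biotinylated TK peptide at Km ATP in pH 7.0 Hepes, 20-30 min RT. EDTA stop; overnight streptavidin-XL665/cryptate HTRF read.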

T2 sequence (O60674 849-1124 limits assumed): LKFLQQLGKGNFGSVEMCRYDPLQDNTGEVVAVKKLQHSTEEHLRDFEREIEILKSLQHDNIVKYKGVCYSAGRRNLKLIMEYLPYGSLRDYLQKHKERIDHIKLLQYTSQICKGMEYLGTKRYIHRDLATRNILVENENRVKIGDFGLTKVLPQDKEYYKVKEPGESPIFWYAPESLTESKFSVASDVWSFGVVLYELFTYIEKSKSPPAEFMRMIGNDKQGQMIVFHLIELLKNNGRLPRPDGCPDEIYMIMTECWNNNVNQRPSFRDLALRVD
T3 sequence (P52333 822-1111 limits assumed): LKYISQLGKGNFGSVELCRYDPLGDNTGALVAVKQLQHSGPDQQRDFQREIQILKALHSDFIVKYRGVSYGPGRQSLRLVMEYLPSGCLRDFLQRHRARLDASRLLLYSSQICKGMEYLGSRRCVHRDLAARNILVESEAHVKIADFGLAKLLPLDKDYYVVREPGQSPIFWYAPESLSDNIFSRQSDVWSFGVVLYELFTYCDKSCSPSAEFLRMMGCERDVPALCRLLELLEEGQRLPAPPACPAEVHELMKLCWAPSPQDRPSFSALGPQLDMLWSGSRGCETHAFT
T1 sequence (P23458 850-1154): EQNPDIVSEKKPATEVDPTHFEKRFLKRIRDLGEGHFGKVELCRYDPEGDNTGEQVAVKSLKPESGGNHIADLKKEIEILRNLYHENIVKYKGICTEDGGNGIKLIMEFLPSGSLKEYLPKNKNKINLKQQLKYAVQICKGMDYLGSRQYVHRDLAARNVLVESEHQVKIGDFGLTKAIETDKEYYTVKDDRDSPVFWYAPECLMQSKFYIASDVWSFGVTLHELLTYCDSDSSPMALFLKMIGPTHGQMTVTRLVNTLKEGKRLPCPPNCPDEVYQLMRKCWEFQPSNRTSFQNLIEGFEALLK

By EC50 is commonly meant the concentration that produces a half-maximal response. As to `CC(C)N(CCO)S(=O)(=O)N1CCN(c2ncnc3[nH]ccc23)CC12CC2` [Example 97, N-(2-hydroxyethyl)-N-isopropyl-5-(7H-pyrrolo[2,3-d]pyrimidin-4-yl)-5,8-diazaspiro[2.5]octane-8-sulfonamide], the EC50 was < 100 nM at JAK1, < 100 nM at JAK2, 100 to 500 nM at JAK3 and > 500 nM on TYK2.

For the compound `CN(C1CCC1)S(=O)(=O)N1CCN(c2ncnc3[nH]ccc23)CC12CC2` [Example 98, N-cyclobutyl-N-methyl-5-(7H-pyrrolo[2,3-d]pyrimidin-4-yl)-5,8-diazaspiro[2.5]octane-8-sulfonamide], the 50% effective concentration (EC50) at JAK1 was < 100 nM; at JAK2 it was < 100 nM; at JAK3, 100 to 500 nM; on TYK2, 100 to 500 nM.

Consider `CCN(C1CCC1)S(=O)(=O)N1CCN(c2ncnc3[nH]ccc23)CC12CC2` [Example 99, N-cyclobutyl-N-ethyl-5-(7H-pyrrolo[2,3-d]pyrimidin-4-yl)-5,8-diazaspiro[2.5]octane-8-sulfonamide], for which the EC50 on JAK1 was < 100 nM; on JAK2, < 100 nM; at JAK3, 100 to 500 nM; at TYK2, < 100 nM.

Regarding `N#CCN(C1CCC1)S(=O)(=O)N1CCN(c2ncnc3[nH]ccc23)CC12CC2` [Example 100, N-(cyanomethyl)-N-cyclobutyl-5-(7H-pyrrolo[2,3-d]pyrimidin-4-yl)-5,8-diazaspiro[2.5]octane-8-sulfonamide], the EC50 at JAK1, at JAK2, on JAK3 and at TYK2 was < 100 nM throughout.

As to `O=S(=O)(N(CCO)C1CCC1)N1CCN(c2ncnc3[nH]ccc23)CC12CC2` [Example 101, N-cyclobutyl-N-(2-hydroxyethyl)-5-(7H-pyrrolo[2,3-d]pyrimidin-4-yl)-5,8-diazaspiro[2.5]octane-8-sulfonamide], the EC50 on JAK1, at JAK2, on JAK3 and at TYK2 was < 100 nM each time.

Consider `N#CCCCN(C1CCC1)S(=O)(=O)N1CCN(c2ncnc3[nH]ccc23)CC12CC2` [Example 102, N-(3-cyanopropyl)-N-cyclobutyl-5-(7H-pyrrolo[2,3-d]pyrimidin-4-yl)-5,8-diazaspiro[2.5]octane-8-sulfonamide], for which the EC50 was < 100 nM on JAK1, < 100 nM at JAK2, < 100 nM at JAK3 and 100 to 500 nM at TYK2.

On to `COCCN(C1CCC1)S(=O)(=O)N1CCN(c2ncnc3[nH]ccc23)CC12CC2` [Example 103, N-cyclobutyl-N-(2-methoxyethyl)-5-(7H-pyrrolo[2,3-d]pyrimidin-4-yl)-5,8-diazaspiro[2.5]octane-8-sulfonamide], for which the concentration giving a half-maximal response (EC50) is < 100 nM on JAK1, < 100 nM at JAK2, 100 to 500 nM on JAK3 and 100 to 500 nM on TYK2.

With `O=S(=O)(N(CCn1ccnc1)C1CCC1)N1CCN(c2ncnc3[nH]ccc23)CC12CC2` [Example 104, N-cyclobutyl-N-(2-imidazol-1-ylethyl)-5-(7H-pyrrolo[2,3-d]pyrimidin-4-yl)-5,8-diazaspiro[2.5]octane-8-sulfonamide], the concentration giving a half-maximal response (EC50) on JAK1 was < 100 nM; at JAK2, < 100 nM; on JAK3, 100 to 500 nM; on TYK2, 100 to 500 nM.

For `CN(C)CCCN(C1CCC1)S(=O)(=O)N1CCN(c2ncnc3[nH]ccc23)CC12CC2` [Example 105, N-cyclobutyl-N-[3-(dimethylamino)propyl]-5-(7H-pyrrolo[2,3-d]pyrimidin-4-yl)-5,8-diazaspiro[2.5]octane-8-sulfonamide], the EC50 on JAK1 was 100 to 500 nM; at JAK2 it was < 100 nM; on JAK3, > 500 nM; at TYK2, > 500 nM.

As to `O=S(=O)(N(CCN1CCOCC1)C1CCC1)N1CCN(c2ncnc3[nH]ccc23)CC12CC2` [Example 106, N-cyclobutyl-N-(2-morpholinoethyl)-5-(7H-pyrrolo[2,3-d]pyrimidin-4-yl)-5,8-diazaspiro[2.5]octane-8-sulfonamide], the EC50 was < 100 nM at JAK1, < 100 nM on JAK2, 100 to 500 nM on JAK3 and > 500 nM on TYK2.

Consider `CC(C#N)N(C1CCC1)S(=O)(=O)N1CCN(c2ncnc3[nH]ccc23)CC12CC2` (centres unmarked) [Example 107, N-(1-cyanoethyl)-N-cyclobutyl-5-(7H-pyrrolo[2,3-d]pyrimidin-4-yl)-5,8-diazaspiro[2.5]octane-8-sulfonamide], for which the concentration for a half-maximal effect (EC50) on JAK1 is < 100 nM; at JAK2, < 100 nM; at JAK3, < 100 nM; at TYK2, 100 to 500 nM.

`N#CCN(CCO)S(=O)(=O)N1CCN(c2ncnc3[nH]ccc23)CC12CC2` [Example 108, N-(cyanomethyl)-N-(2-hydroxyethyl)-5-(7H-pyrrolo[2,3-d]pyrimidin-4-yl)-5,8-diazaspiro[2.5]octane-8-sulfonamide]: the EC50 at JAK1 is < 100 nM; on JAK2, < 100 nM; on JAK3 it was < 100 nM; at TYK2 it was 100 to 500 nM.

For `CN(CCO)S(=O)(=O)N1CCN(c2ncnc3[nH]ccc23)CC12CC2` [Example 109, N-(2-hydroxyethyl)-N-methyl-5-(7H-pyrrolo[2,3-d]pyrimidin-4-yl)-5,8-diazaspiro[2.5]octane-8-sulfonamide], the EC50 at JAK1 was < 100 nM; on JAK2, < 100 nM; at JAK3, 100 to 500 nM; on TYK2, 100 to 500 nM.

With `N#CCCCN(CCO)S(=O)(=O)N1CCN(c2ncnc3[nH]ccc23)CC12CC2` [Example 110, N-(3-cyanopropyl)-N-(2-hydroxyethyl)-5-(7H-pyrrolo[2,3-d]pyrimidin-4-yl)-5,8-diazaspiro[2.5]octane-8-sulfonamide], the EC50 on JAK1 was < 100 nM; on JAK2, < 100 nM; at JAK3, < 100 nM; at TYK2, 100 to 500 nM.

For the compound `O=S(=O)(N(CCO)CCOc1ccccc1)N1CCN(c2ncnc3[nH]ccc23)CC12CC2` [Example 111, N-(2-hydroxyethyl)-N-(2-phenoxyethyl)-5-(7H-pyrrolo[2,3-d]pyrimidin-4-yl)-5,8-diazaspiro[2.5]octane-8-sulfonamide], the half-maximal effective concentration (EC50) on JAK1 was 100 to 500 nM; at JAK2, < 100 nM; at JAK3, 100 to 500 nM; on TYK2, > 500 nM.

Consider `CN(C1COC1)S(=O)(=O)N1CCN(c2ncnc3[nH]ccc23)CC12CC2` [Example 112, N-methyl-N-(oxetan-3-yl)-5-(7H-pyrrolo[2,3-d]pyrimidin-4-yl)-5,8-diazaspiro[2.5]octane-8-sulfonamide], for which the 50% effective concentration (EC50) is < 100 nM at JAK1, < 100 nM at JAK2, < 100 nM on JAK3 and 100 to 500 nM on TYK2.

Consider `N#CCN(C1COC1)S(=O)(=O)N1CCN(c2ncnc3[nH]ccc23)CC12CC2` [Example 113, N-(cyanomethyl)-N-(oxetan-3-yl)-5-(7H-pyrrolo[2,3-d]pyrimidin-4-yl)-5,8-diazaspiro[2.5]octane-8-sulfonamide], for which the EC50 on JAK1, on JAK2, at JAK3 and at TYK2 was < 100 nM each time.

As to `N#CCCCN(C1COC1)S(=O)(=O)N1CCN(c2ncnc3[nH]ccc23)CC12CC2` [Example 114, N-(3-cyanopropyl)-N-(oxetan-3-yl)-5-(7H-pyrrolo[2,3-d]pyrimidin-4-yl)-5,8-diazaspiro[2.5]octane-8-sulfonamide], the EC50 at JAK1, on JAK2, at JAK3 and at TYK2 was < 100 nM each time.

`O=S(=O)(N(CCOc1ccccc1)C1COC1)N1CCN(c2ncnc3[nH]ccc23)CC12CC2` [Example 115, N-(oxetan-3-yl)-N-(2-phenoxyethyl)-5-(7H-pyrrolo[2,3-d]pyrimidin-4-yl)-5,8-diazaspiro[2.5]octane-8-sulfonamide]: the EC50 on JAK1 was < 100 nM; on JAK2, < 100 nM; on JAK3, < 100 nM; at TYK2 it was 100 to 500 nM.

With `O=S(=O)(N(CCO)C1COC1)N1CCN(c2ncnc3[nH]ccc23)CC12CC2` [Example 116, N-(2-hydroxyethyl)-N-(oxetan-3-yl)-5-(7H-pyrrolo[2,3-d]pyrimidin-4-yl)-5,8-diazaspiro[2.5]octane-8-sulfonamide], the half-maximal effective concentration (EC50) was < 100 nM at JAK1, < 100 nM at JAK2, 100 to 500 nM on JAK3 and > 500 nM at TYK2.
